Experimental data: patent publication US20220226484A1, “THERAPEUTIC PEPTIDES” (COHBAR, INC., priority 2019, published 2022)
Positions of bridges follow the written chain, without caps; N, C: chain ends. Non-standard residues stand in square brackets, D forms with d. Primed or numbered codes have the meaning given here. Chains are numbered I, II in the order given. No end group written: not given here. PEG12′ = not defined here; Nle = CCCC[C@H](N)C(=O)O

Tests used:
3T3-L1 Mouse Adipocytes = test: Insulin-dependent effect on free fatty acid levels in cultured mouse adipocytes; format: cell-based; conditions: 3 hours; for Free Fatty Acid Levels, MEAN % ISO, +Insulin: peptide 10 μM + insulin 0.25 nM, percent of isoproterenol (0.1 nM)+insulin (0.25 nM); for Free Fatty Acid Levels, MEAN % ISO, −Insulin: peptide 10 μM alone, percent of isoproterenol (0.1 nM) treated control cells
Protocol: The effect of the peptides on fatty acid metabolism was assessed in the absence and presence of insulin using an assay of free fatty acid levels in cultured cells such as mouse adipocytes. Peptides were initially prepared as 10 mM stock in DMSO and used at a final concentration of 10 μM (0.1% DMSO). […] Insulin (0.25 nM) was used as a partial inhibitor and insulin (10 nM) was used as a potent inhibitor of isoproterenol stimulated fatty acid production. Mouse 3T3-L1 cells purchased from ZenBio (Research Triangle Park, N.C.) were seeded at 3,000 cells per well on 96-well plates in Pre-Adipocyte Medium (Zen-Bio) and grown to confluence at 37° C. in a humidified atmosphere of 5% CO2/95% air. Two days after confluence, cells were placed in Adipocyte Differentiation Medium (Zen-Bio) and cultured for three additional days at 37° C. in a humidified atmosphere of 5% CO2/95% air. The culture medium was then partially replaced with Adipocyte Maintenance Medium (Zen-Bio) and the cells maintained at 37° C. in a humidified atmosphere of 5% CO2/95% air with partial medium replacement every other day. At 12 day of differentiation, 96-well cultures were transferred to Adipocyte Maintenance Medium without insulin and placed at 37° C. in a humidified atmosphere of 5% CO2/95% air for two days. Following this incubation period, the medium was removed from 14 day differentiated cultures and replaced with Assay Buffer (Zen-Bio) containing peptides (10 μM), insulin (0.25 nM or 10 nM), isoproterenol (0.1 nM) as appropriate. […] isoproterenol was added to all wells except untreated controls. Insulin at 0.1 nM and 10 nM was added to control wells. Peptides (10 μM) in the absence or presence of insulin (0.25 nM) were added to test wells. Cells in the presence of compounds were placed at 37° C. in a humidified atmosphere of 5% CO2/95% air for 3 hours. At the end of the final 3 h incubation, conditioned assay buffer was removed from each well and place in a fresh 96-well plate for quantitation of free fatty acid content. Free fatty acid concentrations in the assay buffer samples were determined using a Free Fatty Acid Assay kit (Zen-Bio) according to the manufacturer's instructions using a Cytation 3 plate reader at 540 nm (BioTek, Winooski, VD. Absorbance values were corrected for untreated background and expressed as a percent of isoproterenol (0.1 nM) treated control cells for peptides alone or isoproterenol (0.1 nM)+insulin (0.25 nM) for peptides in presence of insulin (0.25 nM). Treatment with isoproterenol […] alone was used as the free fatty acid level stimulatory control. The relative standard deviation of the isoproterenol control was <10%. […] Free fatty acid levels for insulin (10 nM) treatment were <5% of the isoproterenol control value. Free fatty acid levels for insulin (0.25 nM) treatment were 60-80% of the isoproterenol control value.

H4IIE Rat Hepatoma Cells = test: Insulin-dependent effect on glucose production by cultured rat liver cells; format: cell-based; conditions: 24 hour; for Glucose Levels, MEAN % Control, +Insulin: peptide 10 μM + insulin 800 pM, percent of insulin (800 pM); for Glucose Levels, MEAN % Control, −Insulin: peptide 10 μM alone, percent of untreated control cells
Protocol: The effect of the peptides on glucose production was assessed in the absence and presence of insulin using an assay of glucose levels in cultured cells such as rat hepatocytes. Peptides were initially prepared as 10 mM stock in DMSO and used at a final concentration of 10 μM (0.1% DMSO). Insulin (800 pM) was used as a partial inhibitor of glucose production. H4-IIE cells purchased from ATCC (Manassas, Va.) were seeded at 100,000 cells/well in standard medium (DMEM/high glucose+10% FBS+1× Glutamax+antibiotics) on 96-well plates and allowed to adhere overnight at 37° C. in a humidified atmosphere of 5% CO2/95% air. Approximately 24 h after seeding, the medium was removed, cells rinsed with glucose free DMEM, and Glucose Production Medium (glucose free DMEM+2 mM sodium pyruvate+10 mM sodium lactate) was added. The cultures were placed at 37° C. in a humidified atmosphere of 5% CO2/95% air overnight. The next morning, the medium was removed and fresh Glucose Production Medium containing compounds was added. Insulin at 800 pM was added to control wells. Peptides (10 μM) in the absence or presence of insulin (800 pM) were added to test wells. Cells in the presence of compounds were placed at 37° C. in a humidified atmosphere of 5% CO2/95% air overnight. After 24 hour incubation, conditioned medium from each well was transferred to a fresh 96-well plate for quantitation of glucose content. Quantitation of glucose levels was determined using an Amplex Red Glucose Assay kit (Abacm; Cambridge, Mass.) according to the manufacturer's instructions using a Cytation 3 plate reader at 570 nm (BioTek, Winooski, Vt.). Absorbance values were expressed as a percent of untreated control cells (maximum glucose production) for peptide alone samples or insulin (800 pM) for peptides in the presence of insulin (800 pM. Glucose levels for insulin (800 pM) treatment were ˜80-90% of the untreated control values. The results are reported in Table 15.

## MRVIRMCLGVGLLGDLAG [SEQ ID NO: 2]
3T3-L1 Mouse Adipocytes
  Free Fatty Acid Levels, MEAN % ISO, +Insulin: 60.5%
  Free Fatty Acid Levels, MEAN % ISO, −Insulin: 98.8%
H4IIE Rat Hepatoma Cells
  Glucose Levels, MEAN % Control, +Insulin: 79.7%
  Glucose Levels, MEAN % Control, −Insulin: 121%

## R(dA)IR(Nle)SLNVGLLGEL(dA) (R[dA]IR[Nle]SLNVGLLGEL[dA]) [SEQ ID NO: 15]
3T3-L1 Mouse Adipocytes
  Free Fatty Acid Levels, MEAN % ISO, +Insulin: 112.6%
  Free Fatty Acid Levels, MEAN % ISO, −Insulin: 97.6%
H4IIE Rat Hepatoma Cells
  Glucose Levels, MEAN % Control, +Insulin: 95.2%
  Glucose Levels, MEAN % Control, −Insulin: 94.3%

## RVIR(Nle)CLNVGLLGEL(dA)G (RVIR[Nle]CLNVGLLGEL[dA]G) [SEQ ID NO: 6]
3T3-L1 Mouse Adipocytes
  Free Fatty Acid Levels, MEAN % ISO, +Insulin: 66.9%
  Free Fatty Acid Levels, MEAN % ISO, −Insulin: 93.6%
H4IIE Rat Hepatoma Cells
  Glucose Levels, MEAN % Control, +Insulin: 82.5%
  Glucose Levels, MEAN % Control, −Insulin: 109%

## RVIR(Nle)SLNVGLEGEL(dA) (RVIR[Nle]SLNVGLEGEL[dA]) [SEQ ID NO: 14]
3T3-L1 Mouse Adipocytes
  Free Fatty Acid Levels, MEAN % ISO, +Insulin: 71.9%
  Free Fatty Acid Levels, MEAN % ISO, −Insulin: 89.9%
H4IIE Rat Hepatoma Cells
  Glucose Levels, MEAN % Control, +Insulin: 97.8%
  Glucose Levels, MEAN % Control, −Insulin: 104%

## RVIR(Nle)SLNVGLLGEL(dA)G (RVIR[Nle]SLNVGLLGEL[dA]G) [SEQ ID NO: 8]
3T3-L1 Mouse Adipocytes
  Free Fatty Acid Levels, MEAN % ISO, +Insulin: 74.9%
  Free Fatty Acid Levels, MEAN % ISO, −Insulin: 69.3%
H4IIE Rat Hepatoma Cells
  Glucose Levels, MEAN % Control, +Insulin: 63.5%
  Glucose Levels, MEAN % Control, −Insulin: 105%

## RVIRMCLGVGLLGDL(dA)G (RVIRMCLGVGLLGDL[dA]G) [SEQ ID NO: 4]
3T3-L1 Mouse Adipocytes
  Free Fatty Acid Levels, MEAN % ISO, +Insulin: 36.6%
  Free Fatty Acid Levels, MEAN % ISO, −Insulin: 92.9%
H4IIE Rat Hepatoma Cells
  Glucose Levels, MEAN % Control, +Insulin: 54.3%
  Glucose Levels, MEAN % Control, −Insulin: 119%

## RVIRMCLGVGLLGDLAG (disulfide I:6-II:6) [SEQ ID NO: 26]
3T3-L1 Mouse Adipocytes
  Free Fatty Acid Levels, MEAN % ISO, +Insulin: 33.4%
  Free Fatty Acid Levels, MEAN % ISO, −Insulin: 93.5%
H4IIE Rat Hepatoma Cells
  Glucose Levels, MEAN % Control, +Insulin: 21%
  Glucose Levels, MEAN % Control, −Insulin: 114%

## RVIRMCLGVGLLGDLAG [SEQ ID NO: 3]
3T3-L1 Mouse Adipocytes
  Free Fatty Acid Levels, MEAN % ISO, +Insulin: 37.1%
  Free Fatty Acid Levels, MEAN % ISO, −Insulin: 98.0%
H4IIE Rat Hepatoma Cells
  Glucose Levels, MEAN % Control, +Insulin: 39.9%
  Glucose Levels, MEAN % Control, −Insulin: 121%

## RVIRMCLGVGLLGDLAGK{PEG12} (RVIRMCLGVGLLGDLAGK(PEG12′)) [SEQ ID NO: 17]
3T3-L1 Mouse Adipocytes
  Free Fatty Acid Levels, MEAN % ISO, +Insulin: 35.9%
  Free Fatty Acid Levels, MEAN % ISO, −Insulin: 102%
H4IIE Rat Hepatoma Cells
  Glucose Levels, MEAN % Control, +Insulin: 18.8%
  Glucose Levels, MEAN % Control, −Insulin: 105%

## RVIRMCLGVGLLGDLAGK{PEG12} (chain 1 RVIRMCLGVGLLGDLAGK(PEG12′); chain 2 RVIRMCLGVGLLGDLAGK(PEG12′); disulfide I:6-II:6) [SEQ ID NO: 28]
3T3-L1 Mouse Adipocytes
  Free Fatty Acid Levels, MEAN % ISO, +Insulin: 33.4%
  Free Fatty Acid Levels, MEAN % ISO, −Insulin: 80.7%
H4IIE Rat Hepatoma Cells
  Glucose Levels, MEAN % Control, +Insulin: 23.9%
  Glucose Levels, MEAN % Control, −Insulin: 92.0%

## RVIRMCLNNGLLGEL(dA)G (RVIRMCLNNGLLGEL[dA]G) [SEQ ID NO: 9]
3T3-L1 Mouse Adipocytes
  Free Fatty Acid Levels, MEAN % ISO, +Insulin: 41.0%
  Free Fatty Acid Levels, MEAN % ISO, −Insulin: 95.2%
H4IIE Rat Hepatoma Cells
  Glucose Levels, MEAN % Control, +Insulin: 19.1%
  Glucose Levels, MEAN % Control, −Insulin: 103%

## RVIRMCLNNGLNGEL(dA)E (RVIRMCLNNGLNGEL[dA]E) [SEQ ID NO: 23]
3T3-L1 Mouse Adipocytes
  Free Fatty Acid Levels, MEAN % ISO, +Insulin: 43.9%
  Free Fatty Acid Levels, MEAN % ISO, −Insulin: 99.4%
H4IIE Rat Hepatoma Cells
  Glucose Levels, MEAN % Control, +Insulin: 3.1%
  Glucose Levels, MEAN % Control, −Insulin: 36%

## RVIRMCLNVGLLGEL(dA)E (RVIRMCLNVGLLGEL[dA]E) [SEQ ID NO: 12]
3T3-L1 Mouse Adipocytes
  Free Fatty Acid Levels, MEAN % ISO, +Insulin: 41.2%
  Free Fatty Acid Levels, MEAN % ISO, −Insulin: 92.8%
H4IIE Rat Hepatoma Cells
  Glucose Levels, MEAN % Control, +Insulin: 57.8%
  Glucose Levels, MEAN % Control, −Insulin: 107%

## RVIRMCLNVGLLGEL(dA)G [SEQ ID NO: 5] (RVIRMCLNVGLLGEL[dA]G)
3T3-L1 Mouse Adipocytes; listed as 5
  Free Fatty Acid Levels, MEAN % ISO, +Insulin: 37.0%
  Free Fatty Acid Levels, MEAN % ISO, −Insulin: 94.3%
H4IIE Rat Hepatoma Cells; listed as 5
  Glucose Levels, MEAN % Control, +Insulin: 54.5%
  Glucose Levels, MEAN % Control, −Insulin: 117%

## RVIRMCLNVGLNGEL(dA)G (RVIRMCLNVGLNGEL[dA]G) [SEQ ID NO: 11]
3T3-L1 Mouse Adipocytes
  Free Fatty Acid Levels, MEAN % ISO, +Insulin: 44.0%
  Free Fatty Acid Levels, MEAN % ISO, −Insulin: 65.5%
H4IIE Rat Hepatoma Cells
  Glucose Levels, MEAN % Control, +Insulin: 32.7%
  Glucose Levels, MEAN % Control, −Insulin: 105%

## RVIRMCLNVGNLGEL(dA)G (RVIRMCLNVGNLGEL[dA]G) [SEQ ID NO: 10]
3T3-L1 Mouse Adipocytes
  Free Fatty Acid Levels, MEAN % ISO, +Insulin: 63.2%
  Free Fatty Acid Levels, MEAN % ISO, −Insulin: 90.7%
H4IIE Rat Hepatoma Cells
  Glucose Levels, MEAN % Control, +Insulin: 38%
  Glucose Levels, MEAN % Control, −Insulin: 101%

## RVIRMSLNVGLEGEL(dA) (RVIRMSLNVGLEGEL[dA]) [SEQ ID NO: 13]
3T3-L1 Mouse Adipocytes
  Free Fatty Acid Levels, MEAN % ISO, +Insulin: 78.4%
  Free Fatty Acid Levels, MEAN % ISO, −Insulin: 89.5%
H4IIE Rat Hepatoma Cells
  Glucose Levels, MEAN % Control, +Insulin: 46.8%
  Glucose Levels, MEAN % Control, −Insulin: 71.4%

## RVIRMSLNVGLLGEL(dA)G (RVIRMSLNVGLLGEL[dA]G) [SEQ ID NO: 7]
3T3-L1 Mouse Adipocytes
  Free Fatty Acid Levels, MEAN % ISO, +Insulin: 74.5%
  Free Fatty Acid Levels, MEAN % ISO, −Insulin: 91.1%
H4IIE Rat Hepatoma Cells
  Glucose Levels, MEAN % Control, +Insulin: 74.4%
  Glucose Levels, MEAN % Control, −Insulin: 89.2%
